Reference: patent US11554131B2, “Mixture of HMOs for treating autoimmune diseases” (Glycom A/S, priority 2018, dated 2023)

Experiments:
[1] = test system: non-obese diabetic (NOD) mouse model of diabetes and Sjögren's Syndrome; assay: NOD mouse model: histology of salivary and lacrimal glands and pancreas; assay type: in vivo; settings: NOD mice, drinking water, 12 weeks, compared to control mice; for inflammation of the salivary and lacrimal glands (exocrine glands): corresponding to a human dose of about 10 g/day
From the text: The anti-inflammatory effect of HMOs is investigated in the non-obese diabetic (NOD) mouse model of diabetes and Sjögren's Syndrome.
(§1) The mice are divided into four groups (n=8) with a control group receiving standard tap water, and the three treatment groups receiving supplementation with 2′-FL, mixture of 2′-FL and DFL (in a 4:1 ratio by weight), or 6′-SL in the drinking water, corresponding to a human daily dose of about 10 grams (calculated by metabolic rate and daily water consumption of NOD mice strains).
(§2) The mice receive the treatment for 12 weeks with bi-weekly water changes. From 12 weeks of age, the blood-glucose levels of the mice are checked weekly. Mice with blood-glucose levels above 7 mmol/l are closely monitored and euthanised (and excluded from the study) if their blood glucose levels increase to ≥12 mmol/l on two consecutive measurements.
(§3) After 12 weeks treatment the mice are euthanised, and the following are sampled; serum, pancreas, salivary glands, Haarderian lacrimal glands, extraorbital lacrimal glands, as well as caecum and colon content.
The salivary and lacrimal glands are analysed by measuring the total area of inflammatory foci in relation to the total gland size on eight (salivary glands) and two (lacrimal glands) haematoxylin and eosin-stained paraffin-embedded sections per mouse. The pancreas is similarly analysed using histological sections scoring a minimum of 25 (preferably 50) islets of Langerhans for the degree of insulitis with a score ranging from 0-3 (0=no insulitis, 1=peri-insulitis, 2=infiltratory insulitis compromising ≤50% of the islet, 3=infiltratory insulitis compromising ≥50% of the islet).

[2] = NOD mouse model: short chain fatty acids in caecum content and serum; assay type: in vivo; settings: NOD mice, 12 weeks; for acetate concentration in serum: compared to control animals
From the text: as §1, §2, §3
Caecum content and serum are used to measure the concentration of short chain fatty acids, namely acetate, propionate and butyrate. Faecal samples obtained at baseline together with colon content sampled after euthanasia are used for 16S rRNA genomic sequencing of the microbiota.

Molecule | insulitis of the pancreas [1] | inflammation of the salivary and lacrimal glands (exocrine glands) [1] | acetate concentration in serum [2] | acetate concentration in caecum [2] | concentration of caecum butyrate [2]
2′-fucosyllactose [2′-FL] | reduced | reduce | increases |  | 
CC(=O)N[C@H]1[C@H]([C@H](O)[C@H](O)CO)O[C@@](OC[C@H]2O[C@@H](O[C@H]3[C@H](O)[C@@H](O)[C@H](O)O[C@@H]3CO)[C@H](O)[C@@H](O)[C@H]2O)(C(=O)O)C[C@@H]1O [6′-SL, 6′-sialyllactose] | reduced | reduce | increase | increase | increase
